Test results: patent US20180360972A1, “THERAPEUTIC COMPOUNDS” (REGENTS OF THE UNIVERSITY OF MINNESOTA, priority 2017, published 2018)
“Also recorded” adds a separate entry of the source.

Assays:
male MC3RKO mice = experiment: ICV administration, TSE metabolic cages, male MC3RKO mice; type: in vivo
Protocol: All experiments were performed in accordance with the Institutional Animal Care and Use Committee (IACUC) at the University of Minnesota. Female and male littermates with mixed background from C57BL/6J and 129/Sv inbred strains were 8 weeks old at the time of surgeries. Mice were individually housed after surgeries and for the remainder of the experiment. Mice were maintained on a 12 hr light/dark cycle (Lights off was at 11:59 AM) in a temperature controlled room (23-25° C.). In the nocturnal feeding paradigm, mice had free access to normal chow (Harlan Teklad 2018 Diet: 18.6% crude protein, 6.2% crude fat, 3.5% crude fiber, with energy density of 3.1 kcal/g). […] Mice had free access to tap water throughout all the experiments. The cannula placement validation studies and conventional cage studies were performed in standard mouse polycarbonate conventional cages provided by University of Minnesota's Research Animal Resources (RAR). Weekly cage changes were conducted by lab research staff.
Mice were anesthetize with a mixture of ketamine (100 mg/kg) and xylazine (5 mg/kg) and were positioned in a stereotaxic apparatus (David Kopf Instruments). A 26-gauge cannula (Cat# 81C315GS4SPC; PlasticsOne, Roanoke, Va.) was inserted in the lateral cerebral ventricle at the coordinates 1.0 mm lateral and 0.46 mm posterior to bregma and 2.3 mm ventral to the skull (Franklin, K. B. J. & Paxinos, G. The Mouse Brain in Stereotaxic Coordinates. (Academic Press, 1997)).
As stated above, conventional cage experiments were performed in standard mouse polycarbonate conventional cages. […] All experiments followed a cross-over paradigm in which the mouse received saline and compound on different days with a washout period in between each treatment. Statistical analysis was performed using SPSS V23 software (IBM) using a multivariate general linear model followed by a Bonferroni's post hoc test. Results are presented as Mean±SEM. Statistically significant was considered p<0.05.
In order to more clearly understand the effects of the biased agonism at the MC4R, the effects of administration of CJL-5-58 was explored in MC3R knockout (KO) mice and MC4RKO mice. […] Adverse reactions included two mice dying after the 5 nmol dose. […] The large error in activity may serve as an indication of toxicity. It is currently difficult to decipher whether the adverse reactions observed are due to paradigm effects, genotype difference, or compound toxicity.

hMC4R = target: T1, hMC4R (Homo sapiens, UniProt P32245); experiment: AlphaScreen cAMP functional bioassay, hMC4R; type: cell-based; conditions: HEK293 cells stably expressing hMC4R
T1 construct: Flag; expressed in transfected cells

[1] = nocturnal paradigm, 1 nmol dose

T1 sequence (P32245 whole entry): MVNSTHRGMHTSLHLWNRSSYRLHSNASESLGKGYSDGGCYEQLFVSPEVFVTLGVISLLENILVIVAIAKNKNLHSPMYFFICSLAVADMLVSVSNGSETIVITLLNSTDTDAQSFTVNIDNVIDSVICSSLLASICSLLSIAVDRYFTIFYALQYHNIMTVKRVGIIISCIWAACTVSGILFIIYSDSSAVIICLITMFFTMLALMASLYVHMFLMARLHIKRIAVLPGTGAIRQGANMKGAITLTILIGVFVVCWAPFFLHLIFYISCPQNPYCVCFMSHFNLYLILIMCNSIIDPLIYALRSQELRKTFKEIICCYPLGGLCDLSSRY

CC(=O)N[C@@H](Cc1cnc[nH]1)C(=O)N[C@H](Cc1ccccc1)C(=O)N[C@@H](CCCNC(=N)N)C(=O)N[C@@H](Cc1c[nH]c2ccccc12)C(=O)NCCCOCCOCCOCCCNC(=O)COCC(=O)N[C@@H](Cc1cnc[nH]1)C(=O)N[C@H](Cc1ccc2ccccc2c1)C(=O)N[C@@H](CCCNC(=N)N)C(=O)N[C@@H](Cc1c[nH]c2ccccc12)C(N)=O [CJL-5-58, Ac-His-DPhe-Arg-Trp-(PEDG20)-His-DNal(2′)-Arg-Trp-NH2]
RER vs saline (male MC3RKO mice; fasting-refeeding, 0.5 nmol): significant increase in RER at time point 24 hours
other parameters vs saline (male MC3RKO mice; fasting-refeeding, 0.5 nmols): No other parameters were significantly affected
RER vs saline (male MC3RKO mice; fasting-refeeding, 1 nmol): significantly reduced at 2 and 3 hours
energy expenditure vs saline (male MC3RKO mice; fasting-refeeding, 1 nmol): Significant reductions in energy expenditure were observed in the fasting paradigm at time points 1 and 2 hours
food intake vs saline (male MC3RKO mice; fasting-refeeding, 1.0 nmol): Significant reduction in food intake was observed at 2 and 4 hour time points
adverse reactions / toxicity (male MC3RKO mice; fasting-refeeding, 1.0 or 0.5 nmols): some minor signs of adverse reactions; also recorded: Some toxicity was observed
adverse reactions (male MC3RKO mice; [1]): No adverse reactions were observed
effects on measured parameters vs saline (male MC3RKO mice; [1]): no significant effects were observed
RER vs saline (male MC3RKO mice; nocturnal paradigm, 2.5 nmol): significant increased RER was observed 18, 19, and 24 hours
energy expenditure vs saline (male MC3RKO mice; nocturnal paradigm, 2.5 nmol): significant reduced 1-8 and 13 hours post-treatment
energy expenditure vs saline (male MC3RKO mice; nocturnal paradigm, 5 nmol): significantly reduced at time points 1-3 hrs
food intake vs saline (male MC3RKO mice; nocturnal paradigm, 5 nmol): decreased at time points 2-12 hours
number of mice dying (male MC3RKO mice; nocturnal paradigm, 5 nmol dose): two
activity vs saline (male MC3RKO mice; nocturnal paradigm, 5 nmols): trended towards being lowered (p=0.069)
RER vs saline (male MC3RKO mice; nocturnal paradigm, 5 nmols (dose not restated for CJL-5-58)): significantly decreased at time points 1-5, 8 and 12 hours
adverse reactions / toxicity (male MC3RKO mice; nocturnal paradigm, 2.5 to 5 nmols): adverse reactions were also observed at the 2.5 and 5 nmol concentrations; also recorded: Some toxicity was observed
cAMP agonist potency (in words) (hMC4R): single digit nanomolar agonists
